According to ChEMBL document CHEMBL1287781, “Novel lipophilic 7H-pyrido[1,2,3-de]-1,4-benzoxazine-6-carboxylic acid derivatives as potential antitumor agents: improved synthesis and in vitro evaluation” (Bioorg Med Chem, 2010):
Active and inactive are the calls of the source. The calls are words filed in the database; no cut-off is given here.

How the values were obtained:
A549 [1] = assay: Anticancer activity against human A549 after 5 days by MTT assay; assay type: functional, cell-based; conditions: A549, 120 h
[2] = Chemical stability of the compound in phosphate buffer at pH 7.4 after 7 days; assay type: physicochemical; conditions: read-out: Stability
LoVo [3] = assay: Anticancer activity against human LoVo cells after 5 days by MTT assay; assay type: functional, cell-based; conditions: 120 h
PC-3 [4] = assay: Anticancer activity against human PC3 after 5 days by MTT assay; assay type: functional, cell-based; conditions: PC-3, 120 h
MCF7 [5] = assay: Anticancer activity against human MCF7 after 5 days by MTT assay; assay type: functional, cell-based; conditions: MCF7, 120 h
[6] = Anticancer activity against human U373MG after 5 days by MTT assay; assay type: functional, cell-based, U-373MG ATCC; conditions: U373 MG, 120 h
[7] = Toxicity in ip dosed B6D2F1 mouse after 28 days; assay type: organism-based; conditions: in vivo
A549 [8] = assay: Anticancer activity against human A549 by sulforhodamine B assay; assay type: functional, cell-based
MCF7 [9] = assay: Anticancer activity against human MCF7 by sulforhodamine B assay; assay type: functional, cell-based
MCF7 [10] = assay: Anticancer activity against human MCF7 after 3 to 5 days by MTT assay; assay type: functional, cell-based
LoVo [11] = assay: Anticancer activity against human LoVo cells after 3 to 5 days by MTT assay; assay type: functional, cell-based
A549 [12] = assay: Anticancer activity against human A549 after 3 to 5 days by MTT assay; assay type: functional, cell-based
PC-3 [13] = assay: Anticancer activity against human PC3 after 3 to 5 days by MTT assay; assay type: functional, cell-based
U-373MG ATCC [14] = assay: Anticancer activity against human U373MG after 3 to 5 days by MTT assay; assay type: functional, cell-based
U-373MG ATCC [15] = assay: Antimigratory activity against human U373MG at 0.1 uM after 6 days by phase-contrast microscopy; assay type: functional, cell-based
U-373MG ATCC [16] = assay: Antimigratory activity against human U373MG at 1 uM after 6 days by phase-contrast microscopy; assay type: functional, cell-based

## CCCC(=O)OCOC(=O)c1cn2c3c(c(N4CCN(C)CC4)c(F)cc3c1=O)OC[C@@H]2C
A549 [1]
  IC50: 3 µM
[2]
  remaining at 168 h: > 92%
LoVo [3]
  IC50: 5 µM
PC-3 [4]
  IC50: 31 µM
MCF7 [5]
  IC50: 35 µM
[6]
  IC50: 40 µM

## CCCCCCCC(=O)OCOC(=O)c1cn2c3c(c(N4CCN(C)CC4)c(F)cc3c1=O)OC[C@@H]2C
A549 [1]
  IC50: 289 µM
[2]
  remaining at 168 h: > 90%
LoVo [3]
  IC50: 209 µM
PC-3 [4]
  IC50: 230 µM
MCF7 [5]
  IC50: 238 µM
[7]
  MTD at 672 h: > 80 mg/kg
[6]
  IC50: 243 µM

## C[C@H]1COc2c(N3CCN(C)CC3)c(F)cc3c(=O)c(-c4nc5ccc([N+](=O)[O-])cc5s4)cn1c23
A549 [8]
  IC50: > 10 µM
MCF7 [9]
  IC50: > 10 µM

## CCCCCCCCCCCCCCCC(=O)OCOC(=O)c1cn2c3c(c(N4CCN(C)CC4)c(F)cc3c1=O)OC[C@@H]2C
A549 [1]
  IC50: 46 µM
[2]
  remaining at 168 h: > 93%
LoVo [3]
  IC50: 6 µM
PC-3 [4]
  IC50: 56 µM
MCF7 [5]
  IC50: 8 µM
[6]
  IC50: 4 µM

## CO/N=C(/CN1CCN(c2cc3c(cc2F)c(=O)c(C(=O)O)cn3C2CC2)CC1)c1ccc(Cl)s1
MCF7 [5]
  IC50: 2.9 µM

## CCCCCCCCCCCCNC(=O)c1cn2c3c(c(N4CCN(C)CC4)c(F)cc3c1=O)OC[C@@H]2C
A549 [1]
  IC50: 5 µM
LoVo [3]
  IC50: 3 µM
PC-3 [4]
  IC50: 5 µM
MCF7 [5]
  IC50: 10 µM
[6]
  IC50: 5 µM

## CCCCCCNC(=O)c1cn2c3c(c(N4CCN(C)CC4)c(F)cc3c1=O)OC[C@@H]2C
A549 [1]
  IC50: 6 µM
[2]
  remaining at 168 h: 100%
LoVo [3]
  IC50: 5 µM
PC-3 [4]
  IC50: 12 µM
MCF7 [5]
  IC50: 16 µM
[6]
  IC50: 4 µM

## CCCCCCCCCCNC(=O)c1cn2c3c(c(N4CCN(C)CC4)c(F)cc3c1=O)OC[C@@H]2C
A549 [1]
  IC50: 3 µM
LoVo [3]
  IC50: 3 µM
PC-3 [4]
  IC50: 3 µM
MCF7 [5]
  IC50: 5 µM
[6]
  IC50: 3 µM

## CCCCCCCCCCCCCC(=O)OCOC(=O)c1cn2c3c(c(N4CCN(C)CC4)c(F)cc3c1=O)OC[C@@H]2C
A549 [1]
  IC50: 617 µM
LoVo [3]
  IC50: 21 µM
PC-3 [4]
  IC50: 71 µM
MCF7 [5]
  IC50: 6 µM
[6]
  IC50: 8 µM

## C[C@H]1COc2c(N3CCN(C)CC3)c(F)cc3c(=O)c(C(=O)O)cn1c23 [LEVOFLOXACIN]
A549 [1]
  IC50: 70 µM
MCF7 [10]
  Activity: Dose-dependent effect
LoVo [3]
  IC50: 67 µM
LoVo [11]
  Activity: Dose-dependent effect
PC-3 [4]
  IC50: 238 µM
A549 [12]
  Activity: Dose-dependent effect
PC-3 [13]
  Activity: Dose-dependent effect
MCF7 [5]
  IC50: 622 µM
U-373MG ATCC [14]
  Activity: Dose-dependent effect
[6]
  IC50: 188 µM

## CCCCCCCCNC(=O)c1cn2c3c(c(N4CCN(C)CC4)c(F)cc3c1=O)OC[C@@H]2C
A549 [1]
  IC50: 2.2 µM
[2]
  remaining at 168 h: 100%
MCF7 [10]
  Activity: Dose-dependent effect
LoVo [3]
  IC50: 0.8 µM
LoVo [11]
  Activity: Dose-dependent effect
PC-3 [4]
  IC50: 1.5 µM
A549 [12]
  Activity: Dose-dependent effect
PC-3 [13]
  Activity: Dose-dependent effect
MCF7 [5]
  IC50: 2.1 µM
U-373MG ATCC [14]
  Activity: Dose-dependent effect
[6]
  IC50: 2.3 µM

## CCCCCCCCCC(=O)OCOC(=O)c1cn2c3c(c(N4CCN(C)CC4)c(F)cc3c1=O)OC[C@@H]2C
A549 [1]
  IC50: > 1000 µM
LoVo [3]
  IC50: > 1000 µM
PC-3 [4]
  IC50: > 1000 µM
MCF7 [5]
  IC50: > 1000 µM
[7]
  MTD at 672 h: > 80 mg/kg
[6]
  IC50: > 1000 µM

## CCCCCCCCCCCCCCNC(=O)c1cn2c3c(c(N4CCN(C)CC4)c(F)cc3c1=O)OC[C@@H]2C
A549 [1]
  IC50: 5 µM
[2]
  remaining at 168 h: > 98%
LoVo [3]
  IC50: 3 µM
PC-3 [4]
  IC50: 3 µM
MCF7 [5]
  IC50: 5 µM
[6]
  IC50: 3 µM

## CCCCCC(=O)OCOC(=O)c1cn2c3c(c(N4CCN(C)CC4)c(F)cc3c1=O)OC[C@@H]2C
A549 [1]
  IC50: 235 µM
LoVo [3]
  IC50: 162 µM
PC-3 [4]
  IC50: 207 µM
MCF7 [5]
  IC50: 183 µM
[7]
  MTD at 672 h: > 80 mg/kg
[6]
  IC50: 199 µM

## CCCCCCCCCCCCCCCCCC(=O)OCOC(=O)c1cn2c3c(c(N4CCN(C)CC4)c(F)cc3c1=O)OC[C@@H]2C
A549 [1]
  IC50: 593 µM
U-373MG ATCC [15]
  Activity: inactive
LoVo [3]
  IC50: 4 µM
PC-3 [4]
  IC50: 100 µM
MCF7 [5]
  IC50: 12 µM
U-373MG ATCC [16]
  Activity: inactive
[6]
  IC50: 0.9 µM

## CCCCNC(=O)c1cn2c3c(c(N4CCN(C)CC4)c(F)cc3c1=O)OC[C@@H]2C
A549 [1]
  IC50: 46 µM
[2]
  remaining at 168 h: > 97%
LoVo [3]
  IC50: 24 µM
PC-3 [4]
  IC50: 30 µM
MCF7 [5]
  IC50: 55 µM
[6]
  IC50: 113 µM

## CCCCCCCCCCCCCCCNC(=O)c1cn2c3c(c(N4CCN(C)CC4)c(F)cc3c1=O)OC[C@@H]2C
A549 [1]
  IC50: 8 µM
LoVo [3]
  IC50: 6 µM
PC-3 [4]
  IC50: 5 µM
MCF7 [5]
  IC50: 15 µM
[6]
  IC50: 7 µM

## CCCCCCCNC(=O)c1cn2c3c(c(N4CCN(C)CC4)c(F)cc3c1=O)OC[C@@H]2C
A549 [1]
  IC50: 3 µM
LoVo [3]
  IC50: 1 µM
PC-3 [4]
  IC50: 4 µM
MCF7 [5]
  IC50: 5 µM
[6]
  IC50: 3 µM

## CCCCCCCCCCCC(=O)OCOC(=O)c1cn2c3c(c(N4CCN(C)CC4)c(F)cc3c1=O)OC[C@@H]2C
A549 [1]
  IC50: 65 µM
[2]
  remaining at 168 h: > 91%
U-373MG ATCC [15]
  Activity: inactive
LoVo [3]
  IC50: 0.3 µM
PC-3 [4]
  IC50: 86 µM
MCF7 [5]
  IC50: 0.3 µM
U-373MG ATCC [16]
  Activity: inactive
[6]
  IC50: 0.2 µM
